{
  "source": "paper PMC3832475",
  "about": "“Discovery of Dihydrochalcone as Potential Lead for Alzheimer’s Disease: In Silico and In Vitro Study” (PLoS ONE, 2013)",
  "target": "T1, amyloid beta (Aβ40) (Homo sapiens, UniProt P05067)",
  "T1 construct": "gene APP; Aβ40 peptide (40 amino acids)",
  "T1 sequence (P05067 672-711 limits assumed)": "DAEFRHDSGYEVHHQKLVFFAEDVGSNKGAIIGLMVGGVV",
  "assay": "ThT fluorescence fibrillization assay with purified Aβ[…]), end-point confirmed by TEM",
  "type": "biochemical",
  "data": [
    {"smiles": "O=C(CCc1ccccc1)c1ccccc1", "note": "[Dihydrochalcone]", "values": [
      {"measurement": "IC50", "result": "~2.46", "unit": "µM"}
    ]}
  ]
}
